According to PMC3115046, “Analyzing Airway Inflammation with Chemical Biology: Dissection of Acidic Mammalian Chitinase Function with a Selective Drug-like Inhibitor” (Chemistry & Biology, 2011):

Legend:
[1] = system: murine CHIT1 [mCHIT1]; details: read-out: IC50 murine CHIT1; ref Zheng et al., 2005; Boot et al., 2001; cited from earlier work
[2] = system: allergen-challenged mice; details: ref Matsumoto et al., 2009, cited from earlier work
[3] = target: human chitotriosidase (hCHIT1) (Homo sapiens, UniProt Q13231); test: Chitinase activity assay with fluorescent 4-MU substrate, hCHIT1; assay type: biochemical; details: read-out: IC50 against hCHIT1
human chitotriosidase (hCHIT1), sequence (Q13231 22-466): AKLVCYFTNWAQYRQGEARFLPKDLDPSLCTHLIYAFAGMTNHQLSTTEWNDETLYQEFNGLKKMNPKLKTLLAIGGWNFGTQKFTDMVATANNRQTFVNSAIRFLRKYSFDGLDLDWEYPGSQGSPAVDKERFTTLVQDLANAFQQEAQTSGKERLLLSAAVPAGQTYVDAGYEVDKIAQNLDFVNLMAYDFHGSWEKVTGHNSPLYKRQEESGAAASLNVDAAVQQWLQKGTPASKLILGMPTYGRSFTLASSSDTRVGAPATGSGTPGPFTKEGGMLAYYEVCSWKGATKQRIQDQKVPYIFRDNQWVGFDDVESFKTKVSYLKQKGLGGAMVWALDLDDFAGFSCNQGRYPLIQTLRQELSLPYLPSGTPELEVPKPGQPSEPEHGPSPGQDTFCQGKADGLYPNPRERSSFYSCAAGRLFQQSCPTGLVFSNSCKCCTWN

[4] = system: Aspergillus fumigatus chitinase B1 (AfChiB1); parameters: method as in Schuttelkopf et al., 2011; details: ref Schuttelkopf et al., 2011; cited from earlier work

SMILES	IC50 [1]	eosinophilia in allergen-challenged mice ([2]; Zhu et al., 2004)	IC50 [3]	ligand efficiency against AfChiB1 [4]	allergen or IL-13-induced airway hyperresponsiveness ([2]; Zhu et al., 2004)	neutrophil recruitment in allergic mice [2]
CC(=O)N[C@H]1[C@H](O[C@H]2[C@@H](O)[C@@H](NC(C)=O)[C@H](O[C@H]3[C@H](O)[C@H]4N=C(N(C)C)O[C@H]4[C@@H]3CO)O[C@@H]2CO)O[C@H](CO)[C@@H](O)[C@H]1O [allosamidin]	~0.05 µM	significantly reduced	–	–	–	–
Cn1cnc2c1c(=O)n(CCCn1c(=O)c3c(ncn3C)n(C)c1=O)c(=O)n2C [bisdionin C]	–	–	8.3 ± 0.7 µM	−0.41 kcal·mol^−1·atom^−1	–	–
CNC1=N[C@@H]2[C@@H](O)[C@H](O[C@@H]3O[C@H](CO)[C@@H](O[C@@H]4O[C@H](CO)[C@@H](O)[C@@H](O)[C@H]4NC(C)=O)[C@@H](O)[C@H]3NC(C)=O)[C@@H](CO)[C@@H]2O1 [demethylallosamidin]	–	significantly reduced	–	–	reduces	did not result in neutrophil recruitment
